Results taken from paper PMC2692672 (Journal of molecular biology, 2009).

Target: GRP94 (Canis lupus, UniProt P41148, DEL287-327)
Assay: co-crystal structure
Type: binding

## COC(=O)c1c(O)cc(O)c(Cl)c1CCC(=O)NC1=CC(=O)C(OC)=CC1=O [Radamide]
  Kd: 520 ± 130 nM
